Read-outs that look alike come from different tables or passages of the source. Bridges are numbered along the chain shown (N, C = ends). Where no end group is shown, it is not given here.
Key:
[1] = test system: sodium ion current in A549 cells (deglycosylated cell surface); assay: Patch clamp assay, whole cell mode, on A549 cells deglycosylated with PNGase F; type: cell-based, human; details: 240 nM peptide, Eh -100 mV; for Whole cell current, pre-treatment with PNGase F: A549
Procedure: In whole cell mode experiments as described above, A549 cells were incubated with “PNGase enzyme F” (Peptide-N^4-(N-acetyl-β-D-glucosaminyl)asparagine amidase F) 100 units for 1-5 minutes immediately prior to the patch clamp measurements and glass cover slips with the cultured cells were rinsed with external solution before being transferred to the chamber of the 1 mL bath.
The results of the deglycosylation experiments using the patch clamp assay in whole cell mode are presented in Table IV, wherein the effect of deglycosylation of A549 cells on activation of sodium ion current by peptides of SEQ ID NO:1 to SEQ ID NO:7 is indicated. Whole cell currents were recorded at Eh=−100 mV.

[2] = test system: sodium ion current in A549 cell line; details: for activity on sodium ion current (in words): A549, patch clamp
Procedure: Experiments were carried out on the human epithelial cell line A549 (ATTAC Nr. CCL-185) in passages 80-90. Cells were grown in Dulbecco's modified Eagle's medium/nutrient mixture F12 Ham, supplemented with 10% fetal bovine serum and containing 1% penicillin-streptomycin. All culture media were purchased from Sigma-Aldrich GmbH (St. Louis, MO).
Currents were recorded with the patch clamp method in the whole-cell mode. Glass cover slips with the cultured cells were transferred to a chamber of 1 ml capacity, mounted on the stage of an inverted microscope (Zeiss, Axiovert 100). The chamber contained 1 ml of the bath solution of the following composition (in mM): 145 NaCl, 2.7 KCl, 1.8 CaCl2), 2 MgCl2, 5.5 glucose and 10 HEPES, adjusted to pH 7.4 with 1 M NaOH solution. Micropipettes were pulled from thin-walled borosilicate glass capillaries (World Precision Instruments, Inc., FL, USA) with a Flaming Brown micropipette puller (P87, Sutter Instruments, CA, USA) and polished on a microforge (Narishige, Tokyo, Japan) to obtain electrode resistances ranging from 2.0 to 3.5 MΩ. […] Chemicals for pipette and bathing solutions were supplied by Sigma-Aldrich (Vienna, Austria). Electrophysiological measurements were carried out with an Axopatch 200B patch clamp amplifier (Axon Instruments, CA, USA). Capacity transients were cancelled, and series resistance was compensated. Whole cell currents were filtered at 5 kHz and sampled at 10 KHz. Data acquisition and storage were processed directly to a PC equipped with pCLAMP 10.0 software (Axon Instruments, CA, USA).
After GΩ-seal formation, the equilibration period of 5 min was followed by control recordings at holding potentials (Eh) between −100 and +100 mV in 20 mV increments for 1 min at each Eh. […] The wash-in phase lasted about 1 min. […] Concentration-response curves and EC50-values were fitted and estimated for currents recorded at Eh of −100 mV with SigmaPlot 9.0. […] Subsequent addition of 10 mM tetraethylammonium chloride (TEA) indicated whether any observed increases in the current were due to potassium current. […]

[3] = test system: non-ischemic pig donor lung; assay: Ex vivo lung perfusion (EVLP) of non-ischemic pig donor lungs, inhalative application; details: pulmonary application
Procedure: Brain death pigs were turned into dorsal position, and a longitudinal sternotomy was performed. The pericardium and both pleural cavities were opened. […] An inflow catheter was placed in the pulmonary artery through a purse-string on the right ventricular outflow tract.
The lungs (non-ischemic) were then preserved with an ante grade flush of cold isotonic preservation solution (50 ml per kg body weigh of pig, containing potassium ions, sodium ions, magnesium ions, calcium ions, chloride ions, dextran, glucose, buffering ions) through the inflow catheter. Incision of the left auricular appendix provides outflow. The lungs were ventilated during this period with 50% oxygen, and iced slush were placed in both pleural cavities and mediastinum.
The explanation technique was en bloc harvesting with heart and esophagus according to the following steps: • a) Dissection of soft tissue bridges to the thoracic cavity on both sides of the trachea. • b) Transsection of both pulmonal ligaments (very deep, difficult exposure), then of the VCI, the lower thoracic descendent aorta and the esophagus, respectively. • c) Blunt separation from remaining mediastinal adhesions. • d) Complete inflation of the donor lung prior of tracheal closure with a stapler.
After explantation, the lungs were wrapped in gauze, placed in an insulated ice bag filled with low-potassium dextran extracellular solution, and stored at 4° C. for 18 to 24 hours. A temperature probe was submerged in the container, which will be placed in a refrigerator.
For ex-vivo lung conditioning, the EVLP technique ([…]) was used. In the EVLP technique, donor lungs are placed into a circuit composed of a pump, ventilator and filters. EVLP technique, the temperature may increased up to 37 °C. In the EVLP, a ventilator is used to deliver oxygen to the lungs. The pump is used to perfuse the lungs with an extracellular solution containing human albumin and nutrition. During EVLP, the lung function can be evaluated regularly on key indicators. […]

[4] = test system: sodium ion current in A549 cells (deglycosylated cell surface); assay: Patch clamp assay, whole cell mode, on A549 cells deglycosylated with PNGase F; type: cell-based, human; details: 240 nM peptide, Eh -100 mV

| Molecule | Whole cell current, pre-treatment with PNGase F [1] | other results |
| --- | --- | --- |
| C[C@@H]1NC(=O)CNC(=O)[C@H](CCC(=O)O)NC(=O)[C@@H]2CCCN2C(=O)[C@H]([C@@H](C)O)NC(=O)[C@H](CCC(=O)O)NC(=O)[C@H](CCCNC(=N)N)NC(=O)[C@H](CCC(N)=O)NC(=O)CNC(=O)[C@@H]2CCCN2C(=O)[C@H](CO)NC(=O)[C@@H](N)CCCCNC(=O)CC[C@@H](C(=O)O)NC(=O)[C@H](Cc2ccc(O)cc2)NC(=O)[C@H](Cc2c[nH]c3ccccc23)NC(=O)[C@@H]2CCCN2C(=O)[C@H](CCCCN)NC(=O)[C@H](C)NC(=O)[C@H](CCC(=O)O)NC1=O [SEQ ID NO: 2] | 21.3 pA (n = 3) |  |
| C[C@@H]1NC(=O)CNC(=O)[C@H](CCC(=O)O)NC(=O)[C@@H]2CCCN2C(=O)[C@H]([C@@H](C)O)NC(=O)[C@H](CCC(=O)O)NC(=O)[C@H](CCCNC(=N)N)NC(=O)[C@H](CCC(N)=O)NC(=O)CNC(=O)[C@@H](N)CCCCNC(=O)CNC(=O)[C@H](Cc2ccc(O)cc2)NC(=O)[C@H](Cc2c[nH]c3ccccc23)NC(=O)[C@@H]2CCCN2C(=O)[C@H](CCCCN)NC(=O)[C@H](C)NC(=O)[C@H](CCC(=O)O)NC1=O [SEQ ID NO: 3] | 20.6 pA (n = 3) |  |
| C[C@@H]1NC(=O)CNC(=O)[C@H](CCC(=O)O)NC(=O)[C@@H]2CCCN2C(=O)[C@H]([C@@H](C)O)NC(=O)[C@H](CCC(=O)O)NC(=O)[C@H](CCCNC(=N)N)NC(=O)[C@H](CCC(N)=O)NC(=O)CNC(=O)[C@@H](N)CCCNC(=O)CNC(=O)[C@H](Cc2ccc(O)cc2)NC(=O)[C@H](Cc2c[nH]c3ccccc23)NC(=O)[C@@H]2CCCN2C(=O)[C@H](CCCCN)NC(=O)[C@H](C)NC(=O)[C@H](CCC(=O)O)NC1=O [SEQ ID NO: 4] | 22.5 pA (n = 3) |  |
| C[C@@H]1NC(=O)CNC(=O)[C@H](CCC(=O)O)NC(=O)[C@@H]2CCCN2C(=O)[C@H]([C@@H](C)O)NC(=O)[C@H](CCC(=O)O)NC(=O)[C@H](CCCNC(=N)N)NC(=O)[C@H](CCC(N)=O)NC(=O)CNC(=O)CCCNC(=O)C[C@@H](C(=O)O)NC(=O)[C@H](Cc2ccc(O)cc2)NC(=O)[C@H](Cc2c[nH]c3ccccc23)NC(=O)[C@@H]2CCCN2C(=O)[C@H](CCCCN)NC(=O)[C@H](C)NC(=O)[C@H](CCC(=O)O)NC1=O [SEQ ID NO: 5] | 22.4 pA (n = 3) |  |
| C[C@@H]1NC(=O)CNC(=O)[C@H](CCC(=O)O)NC(=O)[C@@H]2CCCN2C(=O)[C@H]([C@@H](C)O)NC(=O)[C@H](CCC(=O)O)NC(=O)[C@H](CCCNC(=N)N)NC(=O)[C@H](CCC(N)=O)NC(=O)CNC(=O)CCNC(=O)CC[C@@H](C(=O)O)NC(=O)[C@H](Cc2ccc(O)cc2)NC(=O)[C@H](Cc2c[nH]c3ccccc23)NC(=O)[C@@H]2CCCN2C(=O)[C@H](CCCCN)NC(=O)[C@H](C)NC(=O)[C@H](CCC(=O)O)NC1=O [SEQ ID NO: 6] | 19.9 pA (n = 3) |  |
| Cyclo(CGQREAPAGAAAKPWYC) (disulfide 1-17) [SEQ ID NO: 7, reference compound] | no avtivity | activity on sodium ion current (in words) [2]: no activity; activity on sodium ion current (in words) ([2]; listed as SEQ ID NO:7): did not show activity; EC50 (nM) on cellular sodium ion current ([2]; A549, whole cell recording, Eh -100 mV): no activity; activity in deglycosylation experiments (in words) [1]: no activity; effects on lung function [3]: did not provide improving effects; Whole cell current, no pre-treatment with PNGase F [4]: no activity |

Source: US12004506B2, “Pharmaceutical composition comprising a cyclic peptide of formula X1-[sequence]-X2 and use for extracorporeal lung treatment” (priority 2013, dated 2024)
